The values that follow come from US7576128B2 (priority 2004, dated 2009).

What is called pIC50 is −log10 of the IC50, conventionally taken in molar units.

Changes are numbered by the printed parent chain. pIC50: −log10 of the molar value. A value given as a limit tells only on which side of the number the result lay.

The conditions of experiment [1]: after 7 years of treatment; cited from earlier work.
The target of experiment [2] is T1, hAR (human androgen receptor) (Homo sapiens, UniProt P10275).
T1 construct: made in house; host or cells: baculovirus/Sf9 insect cells
T1 sequence (P10275 1-920): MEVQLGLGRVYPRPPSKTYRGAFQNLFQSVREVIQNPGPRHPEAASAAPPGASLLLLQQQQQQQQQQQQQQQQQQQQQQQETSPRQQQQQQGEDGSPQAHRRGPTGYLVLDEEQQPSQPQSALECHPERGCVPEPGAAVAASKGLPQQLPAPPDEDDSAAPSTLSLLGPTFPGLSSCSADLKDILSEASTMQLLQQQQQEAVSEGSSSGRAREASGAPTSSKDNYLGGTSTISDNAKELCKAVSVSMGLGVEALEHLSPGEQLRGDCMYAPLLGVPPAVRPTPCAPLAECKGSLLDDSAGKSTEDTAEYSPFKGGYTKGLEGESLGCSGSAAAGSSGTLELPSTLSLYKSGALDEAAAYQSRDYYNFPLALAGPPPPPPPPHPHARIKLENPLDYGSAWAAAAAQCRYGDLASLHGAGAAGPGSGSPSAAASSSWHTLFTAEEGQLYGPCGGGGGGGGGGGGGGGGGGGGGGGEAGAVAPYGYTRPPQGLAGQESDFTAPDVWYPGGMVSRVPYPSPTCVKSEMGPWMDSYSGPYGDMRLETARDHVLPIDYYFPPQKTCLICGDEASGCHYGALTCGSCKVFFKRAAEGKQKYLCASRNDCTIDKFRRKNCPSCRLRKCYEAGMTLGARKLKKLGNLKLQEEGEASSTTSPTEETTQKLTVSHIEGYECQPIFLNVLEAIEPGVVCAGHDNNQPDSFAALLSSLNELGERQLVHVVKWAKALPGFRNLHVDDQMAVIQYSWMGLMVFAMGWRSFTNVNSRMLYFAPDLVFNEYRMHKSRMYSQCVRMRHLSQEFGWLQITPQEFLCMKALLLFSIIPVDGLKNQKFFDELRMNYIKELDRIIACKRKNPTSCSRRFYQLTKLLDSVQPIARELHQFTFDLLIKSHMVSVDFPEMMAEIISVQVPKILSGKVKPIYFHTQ
The experiment can be described thus: Competitive binding analysis on baculovirus/Sf9 generated hAR extracts with 3H-DHT tracer. As to the method:
The description below describes how the assay was carried out.
Competitive binding analysis was performed on baculovirus/Sf9 generated hAR extracts in the presence or absence of different concentrations of test agent and a fixed concentration of ^3H-dihydrotestosterone (^3H-DHT) as tracer. This binding assay method is a modification of a protocol previously described (Liao S., et. al. J. Steroid Biochem. 20:11-17 1984). Briefly, progressively decreasing concentrations of compounds are incubated in the presence of hAR extract (Chang et al. P.N.A.S. Vol. 89, pp. 5546-5950,1992), hydroxylapatite, and 1 nM ^3 H-DHT for one hour at 4° C. Subsequently, the binding reactions are washed three times to completely remove excess unbound ^3 H-DHT. hAR bound ^3H-DHT levels are determined in the presence of compounds (=i.e competitive binding) and compared to levels bound when no competitor is present (=i.e. maximum binding). Compound binding affinity to the hAR is expressed as the concentration of compound at which one half of the maximum binding is inhibited.

The target in experiment [3] is T2, androgen receptor (Homo sapiens, UniProt P10275).
T2 sequence (P10275 1-920 Q868H): T1 sequence (P10275 1-920) with Q868H
The experiment can be described thus: AR antagonist cell assay, MDA-MB453-MMTV clone 54-19 luciferase reporter. The format is cell-based. The following applies: read-out: AR Cell IC50; MDA-MB453-MMTV clone 54-19, 100 pM DHT, 17 hr; mean of multiple tests. As to the method:
The compounds ability to antagonize the effects of androgen on the androgen receptor were determined in a whole cell assay as described immediately below.
This cell line is a stable transfected cell line with MDA-MB453 cell background (a human breast tumor cell line expressing androgen receptor). A MMTV minimal promoter containing ARE was first cloned in front of a firefly luciferase reporter gene. Then the cascade was cloned into transfection vector pUV120puro. Electroporation method was used for transfecting MDA-MB-453 cell. Puromycin resistant stable cell line was selected.
• 1. Cells are maintained in culture medium, splitting cells when they reach 80-90% confluence • 2. To test compounds, 10,000 cells/well are plated to opaque 96 cell culture plate in 100 ul/well plating medium, culture for overnight at 37° C. in cell culture incubator • 3. Carefully remove plating medium, then add 80 ul/well of pre-warmed assay medium, add 10 ul/well testing compound (final concentration at) 1000 nM, 200 nM, 40 nM, 8 nM, 1.6 nM, and 0.32 nM), incubate at 37° C. for 30 minutes • 4. Add 10 ul/well freshly prepared DHT (final concentration at 100 pM) to each well, incubate at 37° C. for 17 hr (overnight) • 5.
The results are reported as the mean of multiple tests as described below (the numbers of tests are indicated in the footnote). N.D. denotes that the compound was not tested.
Background: A reporter such as luciferase makes a cellular process visible.

In experiment [4] the test system is Male C3H/HeN mice. Kind of experiment: Modified telogen conversion assay (hair growth, induction of anagen). The format is in vivo. To be noted: test concentration of 3% w/v, topical. The text has this:
It has been discovered that male C3H/HeN mice may be used in the telogen conversion assay, when evaluating anti-androgen test compounds. Thus, the model relates to a modification of the existing telogen conversion assay. Male C3H/HeN mice approximately 7 weeks old are utilized. These animals are also uniformly in telogen, like their female counterparts. However, once shaven, the androgens inherently present in these male mice inhibit the conversion of the hair follicles to the anagen phase. An anti-androgen will block this androgenic effect and the follicles will convert to anagen, like their female counterparts.
Male C3H/HeN mice, 6 to 7 weeks old (Charles River Laboratories, Raleigh, N.C.) were used for the study. Fur was clipped from the dorsal region of the mice prior to initiation of the study. Only mice with pink skin, a visual indication of the telogen phase, were selected for inclusion in the study.
The test compound was dissolved in a vehicle consisting of propylene glycol (30%) and ethanol (70%) to achieve a concentration of either 0.2% w/v, 0.5% w/v, 1% w/v or 3% w/v. The relevant dose was applied topically to the clipped dorsal region of the mice in one test group (7-10 mice) in a volume of 20 μl/cm^2. A third group of animals received only the vehicle to serve as a control. Treatments were applied twice daily for 4 weeks.
The treatment area was observed and graded every other day for signs of hair growth. The hair growth response was quantified by recording, for each animal, the day on which signs of hair growth first appeared over the treated area. The first sign of anagen was the darkening of skin color as melanocytes in the follicles started to synthesize melanin in preparation for the production of pigmented hairs. […] The percentage of mice showing signs of hair growth in both the treatment group and the control group is graphically depicted in FIG. 1.

For `NCCCC(O)(P(=O)(O)O)P(=O)(O)O` [alendronate], the “increase in spinal BMD” value in experiment [1] was no more than 11%.

As for `CC(C)C(O)C(C)(C)COc1ccc(C#N)c(Cl)c1` (stereo not shown) [Example 27, 2-Chloro-4-(3-Hy-droxy-2,2,4-trimethyl-pentyloxy)-benzonitrile], the results for the pIC50 in experiment [2] and in experiment [3] were 7.20 and 10.40, respectively. Further, in experiment [4], the “rate of hair growth versus vehicle control” value is on record as “did not exceed that of the vehicle control”.
